Drawing on patent US12187713B2, “Immunomodulators, compositions and methods thereof” (Betta Pharmaceuticals Co., Ltd, priority 2019, dated 2025), this text covers IC50 for 19 compounds.

Sequence of PD-1/PD-L1 (Q9NZQ7 19-238): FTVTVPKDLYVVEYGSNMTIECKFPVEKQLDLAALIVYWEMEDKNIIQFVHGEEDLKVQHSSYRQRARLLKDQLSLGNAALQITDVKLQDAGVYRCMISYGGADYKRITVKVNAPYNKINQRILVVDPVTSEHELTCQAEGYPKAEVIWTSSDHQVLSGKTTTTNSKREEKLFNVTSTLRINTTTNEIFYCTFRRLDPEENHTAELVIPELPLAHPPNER

The first assay addresses PD-1/PD-L1 (Homo sapiens (Human), UniProt Q9NZQ7). Description: PD-1/PD-L1 Binding Assay (Alphascreen). The conditions noted are these: numeric values. How it is done: PD-1/PD-L1 Binding Assay (Alphascreen)
The assays were conducted in a standard black 384-well polystyrene plate with a final volume of 20 μL. Inhibitors were first serially diluted in DMSO and then added to the plate wells before the addition of other reaction components. The final concentration of DMSO in the assay was […]. Add 100 nL/well of compound to the 384 reaction plate (6008280, PerkinElmer) with Echo and centrifuge at 1000 rpm for 1 minute. Add 5 μL/well 4×PD-L1 solutions to the 384 reaction plate, centrifuge at 1000 rpm for 1 minute, and add 5 μL/well 4×PD-1 solutions, centrifuge at 1000 rpm for 1 minute, and incubate at 25° C. for 15 minutes. The concentrations of the compounds were 300, 100, 33.33, 11.11, 3.70, 1.23, 0.41, 0.137, 0.046, 0.015, 0 nM, respectively. Add 10 μL/well 2× Anti-6×His AlphaLISA Acceptor beads and Streptavidin Donor beads solution (PerkinElmer-AL356F) to the above 384 reaction plate, centrifuge at 1000 rpm for 1 minute, and incubate at 25° C. in the dark for 120 minutes. Read the AlphaLISA signal value using the Envision Reader. IC50 determination was performed by fitting the curve of percent control activity versus the log of the inhibitor concentration using the GraphPad Prism 8.0 software.
What is called IC50 is the midpoint of a concentration-inhibition curve. High values mean lower potency, low ones higher potency. Take `Cc1c(Nc2nccc3cc(CN4CCCC[C@H]4C(=O)O)cnc23)cccc1-c1cccc(-c2nc3cc(CN4CCC[C@H]4C(=O)O)c(OC(F)F)cc3o2)c1C` [Example 173, (S)-1-((8-((3′-(5-(((S)-2-carboxypyrrolidin-1-yl)methyl)-6-(difluoromethoxy)benzo[d]oxazol-2-yl)-2,2′-dimethyl-[1,1′-biphenyl]-3-yl)amino)-1,7-naphthyridin-3-yl)methyl)piperidine-2-carboxylic acid]: the half-inhibitory concentration (IC50) came to 0.93 nM.
For the compound `Cc1c(-c2nc3cc(CN(C)CCN(C)C)c(OC(F)F)cc3o2)cccc1-c1cccc(-c2nc3cc(CN4CCC[C@H]4C(=O)O)c(OC(F)F)cc3o2)c1C` [Example 59, ((6-(difluoromethoxy)-2-(3′-(6-(difluoromethoxy)-5-(((2-(dimethylamino)ethyl)(methyl)amino)methyl)benzo [d]oxazol-2-yl)-2,2′-dimethyl-[1,1′-biphenyl]-3-yl)benzo[d]oxazol-5-yl)methyl)-L-proline], the IC50 came out at 2.5 nM. Compared with the last compound, the IC50 is about 2.7-fold higher.
For the compound `Cc1c(-c2nc3cc(CNCCCNCCO)c(OC(F)F)cc3o2)cccc1-c1cccc(-c2nc3cc(CN4CCC[C@H]4C(=O)O)c(OC(F)F)cc3o2)c1C` [Example 58, ((6-(difluoromethoxy)-2-(3′-(6-(difluoromethoxy)-5-(((3-((2-hydroxyethyl)amino)propyl)amino)methyl)benzo[d]oxazol-2-yl)-2,2′-dimethyl-[1,1′-biphenyl]-3-yl)benzo[d]oxazol-5-yl)methyl)-L-proline], the IC50 was 0.79 nM.
The same measure, in the same setting: the figure for `Cc1c(-c2nc3cc(CN4CC[C@H](C(=O)O)C4)c(OC(F)F)cc3o2)cccc1-c1cccc(-c2nc3cc(CN4CC(C)(C)C4)c(OC(F)F)cc3o2)c1C` [Example 86, (S)-1-((6-(difluoromethoxy)-2-(3′-(6-(difluoromethoxy)-5-((3,3-dimethylazetidin-1-yl)methyl)benzo[d]oxazol-2-yl)-2,2′-dimethyl-[1,1′-biphenyl]-3-yl)benzo[d]oxazol-5-yl)methyl)pyrrolidine-3-carboxylic acid] is 11 nM; for `Cc1c(-c2nc3cc(CN4CCC[C@H]4C(=O)O)c(OC(F)F)cc3o2)cccc1-c1cccc(-c2nc3cc(CN4CCC4)cc(C)c3o2)c1C` [Example 94, ((2-(3′-(5-(azetidin-1-ylmethyl)-7-methylbenzo[d]oxazol-2-yl)-2,2′-dimethyl-[1,1′-biphenyl]-3-yl)-6-(difluoromethoxy)benzo[d]oxazol-5-yl)methyl)-L-proline] it is 1.9 nM.
As for `Cc1c(-c2ccc(CN3CCCC3)c(C(=O)O)c2)cccc1-c1cccc(-c2nc3cc(CN4CCC[C@H]4C(=O)O)c(OC(F)F)cc3o2)c1C` [Example 236, ((2-(3″-carboxy-2,2′-dimethyl-4″-(pyrrolidin-1-ylmethyl)-[1,1′:3′,1″-terphenyl]-3-yl)-6-(difluoromethoxy)benzo[d]oxazol-5-yl)methyl)-L-proline], the IC50 came out at 290 nM.
In turn, `Cc1c(-c2nc3cc(CN4CCC[C@H]4C(=O)O)c(OC(F)F)cc3o2)cccc1-c1cccc(-c2nc3cc(CN4CCC45COC5)c(OC(F)F)cc3o2)c1C` [Example 39, ((2-(3′-(5-((6-oxa-1-azaspiro[3.3]heptan-1-yl)methyl)-6-(difluoromethoxy)benzo[d]oxazol-2-yl)-2,2′-dimethyl-[1,1′-biphenyl]-3-yl)-6-(difluoromethoxy)benzo[d]oxazol-5-yl)methyl)-L-proline] showed an IC50 of 2.4 nM.
`Cc1c(-c2nc3cc(CN4CCC(C)(CO)C4)c(OC(F)F)cc3o2)cccc1-c1cccc(-c2nc3cc(CN4CCC[C@H]4C(=O)O)c(OC(F)F)cc3o2)c1C` (stereo partly drawn) [Example 77, ((6-(difluoromethoxy)-2-(3′-(6-(difluoromethoxy)-5-((3-(hydroxymethyl)-3-methylpyrrolidin-1-yl)methyl)benzo[d]oxazol-2-yl)-2,2′-dimethyl-[1,1′-biphenyl]-3-yl)benzo[d]oxazol-5-yl)methyl)-L-proline] yielded a concentration for half-maximal inhibition (IC50) of 1.2 nM.

Still in this assay, the particulars now being: range symbols.
Turning to `Cc1c(-c2nc3cc(CN4CCC[C@@H]4C(=O)O)c(OC(F)F)cc3o2)cccc1-c1cccc(-c2ccc(CN3CCCC3)cc2F)c1Cl` [Example 224, ((2-(2′-chloro-2″-fluoro-2-methyl-4″- (pyrrolidin-1-ylmethyl)-[1,1′:3′,1″-terphenyl]-3-yl)-6-(difluoromethoxy)benzo[d]oxazol-5-yl)methyl)-D-proline], the IC50 was 0.1 to 5 nM.
`Cc1c(-c2nc3cc(CN4CC(=O)C4)c(OC(F)F)cc3o2)cccc1-c1cccc(-c2nc3cc(CN4CCC[C@H]4C(=O)O)c(OC(F)F)cc3o2)c1C` [Example 46, ((6-(difluoromethoxy)-2-(3′-(6-(difluoromethoxy)-5-((3-oxoazetidin-1-yl)methyl)benzo[d]oxazol-2-yl)-2,2′-dimethyl-[1,1′-biphenyl]-3-yl)benzo[d]oxazol-5-yl)methyl)-L-proline] registered an IC50 of 5 to 50 nM.
For `Cc1c(-c2nc3cc(CN4CCC[C@H]4C(=O)O)c(OC(F)F)cc3o2)cccc1-c1cccc(-c2nc3cc(CN4CC(N(C)C)C4)cnc3o2)c1C` [Example 116, ((6-(difluoromethoxy)-2-(3′-(6-((3-(dimethylamino)azetidin-1-yl)methyl)oxazolo [5,4-b]pyridin-2-yl)-2,2′-dimethyl-[1,1′-biphenyl]-3-yl)benzo[d]oxazol-5-yl)methyl)-L-proline], the half-inhibitory concentration (IC50) fell in the range of 0.1 to 5 nM.
In turn, `Cc1c(-c2nc3cc(CN4CCC[C@H]4C(=O)O)c(OC(F)F)cc3o2)cccc1-c1cccc(-c2nc3cc(CNCC(C)(C)O)cc(C#N)c3o2)c1C` [Example 138, ((2-(3′-(7-cyano-5-(((2-hydroxy-2-methylpropyl)amino)methyl)benzo[d]oxazol-2-yl)-2,2′-dimethyl-[1,1′-biphenyl]-3-yl)-6-(difluoromethoxy)benzo[d]oxazol-5-yl)methyl)-L-proline] registered a half-inhibitory concentration (IC50) of 0.1 to 5 nM.
With `Cc1c(-c2nc3c(o2)CCN(CC2CCC(=O)N2)C3)cccc1-c1cccc(-c2nc3cc(CN4CCC[C@H]4C(=O)O)c(OC(F)F)cc3o2)c1C` (stereo partly shown) [Example 193, ((6-(difluoromethoxy)-2-(2,2′-dimethyl-3′-(5-((5-oxopyrrolidin-2-yl)methyl)-4,5,6,7-tetrahydrooxazolo[4,5-c]pyridin-2-yl)-[1,1′-biphenyl]-3-yl)benzo[d]oxazol-5-yl)methyl)proline], the IC50 lay in the range of 5 to 50 nM.
In turn, `Cc1c(-c2nc3cc(CN4CCC[C@@H]4C(=O)O)c(OC(F)F)cc3o2)cccc1-c1cccc(-c2nc3cc(CN4CC(C)(C)C4)cc(C#N)c3o2)c1C` [Example 140, ((2-(3′-(7-cyano-5-((3,3-dimethylazetidin-1-yl)methyl)benzo[d]oxazol-2-yl)-2,2′-dimethyl-[1,1′-biphenyl]-3-yl)-6-(difluoromethoxy)benzo[d]oxazol-5-yl)methyl)-D-proline] returned an IC50 of 0.1 to 5 nM.
For the compound `Cc1c(-c2nc3cc(CN(C)C)c(OCc4ccc(S(C)(=O)=O)cc4)cc3o2)cccc1-c1cccc(-c2nc3cc(CN4CCC[C@H]4C(=O)O)c(OC(F)F)cc3o2)c1C` [Example 126, ((6-(difluoromethoxy)-2-(3′-(5-((dimethylamino)methyl)-6-((4-(methylsulfonyl)benzyl)oxy)benzo[d]oxazol-2-yl)-2,2′-dimethyl-[1,1′-biphenyl]-3-yl)benzo[d]oxazol-5-yl)methyl)-L-proline], the half-inhibitory concentration (IC50) lay in the range of 0.1 to 5 nM.
`Cc1c(-c2nc3cc(CN4CC[C@H](C(=O)O)C4)c(OC(F)F)cc3o2)cccc1-c1cccc(-c2nc3cc(CN4CCC(C)C4)cc(C(F)(F)F)c3o2)c1C` (stereo partly drawn) [Example 92, (3S)-1-((6-(difluoromethoxy)-2-(2,2′-dimethyl-3′-(5-((3-methylpyrrolidin-1-yl)methyl)-7-(trifluoromethyl)benzo [d]oxazol-2-yl)-[1,1′-biphenyl]-3-yl)benzo[d]oxazol-5-yl)methyl)pyrrolidine-3-carboxylic acid] yielded an IC50 of 0.1 to 5 nM.
The compound `Cc1c(-c2nc3c(o2)CCN(CCCF)C3)cccc1-c1cccc(-c2nc3cc(CN4CCC[C@H]4C(=O)O)c(OC(F)F)cc3o2)c1C` [Example 200, ((6-(difluoromethoxy)-2-(3′-(5-(3-fluoropropyl)-4,5,6,7-tetrahydrooxazolo[4,5-c]pyridin-2-yl)-2,2′-dimethyl-[1,1′-biphenyl]-3-yl)benzo[d]oxazol-5-yl)methyl)proline] had a half-maximal inhibitory concentration (IC50) of 5 to 50 nM.
Same read-out and setting: next, `Cc1c(Oc2ccc(CNC[C@@H]3CCC(=O)N3)cn2)cccc1-c1cccc(-c2nc3cc(CN4CCC[C@H]4C(=O)O)c(OC(F)F)cc3o2)c1C` [Example 214, ((6-(difluoromethoxy)-2-(2,2′-dimethyl-3′-((5-(((((S)-5-oxopyrrolidin-2-yl)methyl)amino)methyl)pyridin-2-yl)oxy)-[1,1′-biphenyl]-3-yl)benzo[d]oxazol-5-yl)methyl)-L-proline]: more than 50 nM; `Cc1c(-c2nc3cc(CN4CC(C)(C#N)C4)c(OC(F)F)cc3o2)cccc1-c1cccc(-c2nc3cc(CN4CCC[C@H]4C(=O)O)c(OC(F)F)cc3o2)c1C` [Example 79, ((2-(3′-(5-((3-cyano-3-methylazetidin-1-yl)methyl)-6-(difluoromethoxy)benzo[d]oxazol-2-yl)-2,2′-dimethyl-[1,1′-biphenyl]-3-yl)-6-(difluoromethoxy)benzo[d]oxazol-5-yl)methyl)-L-proline]: 0.1 to 5 nM.
